Data on 21 compounds can be found in patent publication US20100204203A1, “Chemical Compounds 637: Pyridopyrimidinediones as PDE4 Inhibitors” (priority 2007, published 2010).

Where a name gives a salt, the structure may show the parent alone.

Chain of recombinant Human Phosphodiesterase B2 (PDE4B2) (Q07343 1-564 isoform Q07343-2): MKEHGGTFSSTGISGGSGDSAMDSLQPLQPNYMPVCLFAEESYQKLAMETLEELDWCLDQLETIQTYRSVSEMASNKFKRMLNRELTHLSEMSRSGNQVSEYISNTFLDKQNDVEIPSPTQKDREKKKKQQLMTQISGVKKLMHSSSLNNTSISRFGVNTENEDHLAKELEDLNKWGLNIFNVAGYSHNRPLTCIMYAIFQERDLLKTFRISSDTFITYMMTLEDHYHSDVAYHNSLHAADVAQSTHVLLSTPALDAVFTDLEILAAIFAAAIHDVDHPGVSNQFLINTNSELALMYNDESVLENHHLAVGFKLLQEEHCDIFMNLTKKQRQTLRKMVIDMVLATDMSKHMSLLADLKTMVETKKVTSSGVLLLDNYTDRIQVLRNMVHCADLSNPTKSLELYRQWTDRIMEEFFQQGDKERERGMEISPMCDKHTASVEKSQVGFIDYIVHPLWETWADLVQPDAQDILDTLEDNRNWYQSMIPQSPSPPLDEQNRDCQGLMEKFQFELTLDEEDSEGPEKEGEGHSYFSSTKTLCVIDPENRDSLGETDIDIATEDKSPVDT

This assay addresses recombinant Human Phosphodiesterase B2 (PDE4B2) (Homo sapiens, UniProt Q07343). Kind of assay: Human Phosphodiesterase B2 Radiometric Assay (yttrium silicate SPA beads, [3H]cyclic AMP). The assay is classed as biochemical. The settings on record: recombinant human PDE4B2, radiometric SPA assay, 8 nM [3H]cyclic AMP; read-out: PDE4B2 pIC50 (converted). The procedure, abridged: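 Compounds were preincubated 30 min at 30 °C with 0.1 mg/mL PDE4B2 in 50 mM HEPES pH 7.5, 8.3 mM MgCl2, 1.7 mM EGTA, 0.01% Brij 35. Then 8 nM [3H]cAMP was added for 20 min, stopped with yttrium silicate SPA beads plus 18 mM ZnSO4 capturing product 5′AMP; pIC50 by curve fitting.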
For the compound `Cc1cc(C(=O)N[C@H]2CC[C@@H](n3c(=O)c4cc(F)cnc4n(-c4cccc(-c5ccc(CN6CCOCC6)cc5)c4)c3=O)CC2)nn1C` [Example 108, N-{cis-4-[6-fluoro-1-[4′-(morpholin-4-ylmethyl)biphenyl-3-yl]-2,4-dioxo-1,4-dihydropyrido[2,3-d]pyrimidin-3(2H)-yl]cyclohexyl}-1,5-dimethyl-1H-pyrazole-3-carboxamide], the IC50 was 0.00794 nM.
In the case of `O=C(N[C@H]1CC[C@@H](n2c(=O)c3cc(F)cnc3n(-c3cccc(-c4ccccc4CN4CCOCC4)c3)c2=O)CC1)c1ccccc1O` [Example 63, N-{cis-4-[6-fluoro-1-[2′-(morpholin-4-ylmethyl)biphenyl-3-yl]-2,4-dioxo-1,4-dihydropyrido[2,3-d]pyrimidin-3(2H)-yl]cyclohexyl}-2-hydroxybenzamide] it was 0.0794 nM; in that of `COc1ccc(CN[C@H]2CC[C@@H](n3c(=O)c4cc(F)cnc4n(-c4cccc(-c5ccc(CN6CCCOCC6)cc5)c4)c3=O)CC2)cc1Cl` [Example 258, 3-{cis-4-[(3-Chloro-4-methoxybenzyl)amino]cyclohexyl}-6-fluoro-1-[4′-(1,4-oxazepan-4-ylmethyl)biphenyl-3-yl]pyrido[2,3-d]pyrimidine-2,4(1H,3H)-dione], 2 nM.
For `CN(C)C1(C(=O)N[C@H]2CC[C@@H](n3c(=O)c4cc(F)cnc4n(-c4cccc(-c5ccc(CN6CCCCC6)cc5)c4)c3=O)CC2)CC1` [Example 125, 1-(dimethylamino)-N-{cis-4-[6-fluoro-2,4-dioxo-1-[4′-(piperidin-1-ylmethyl)biphenyl-3-yl]-1,4-dihydropyrido[2,3-d]pyrimidin-3(2H)-yl]cyclohexyl}cyclopropane-carboxamide], the IC50 was 0.158 nM.
In the case of `O=C(N[C@H]1CC[C@@H](n2c(=O)c3cc(F)cnc3n(-c3cccc(-c4ccc(CN5CCCNCC5)cc4)c3)c2=O)CC1)c1ccc2ccccc2n1` [Example 350, N-{cis-4-[1-[4′-(1,4-diazepan-1-ylmethyl)biphenyl-3-yl]-6-fluoro-2,4-dioxo-1,4-dihydropyrido[2,3-d]pyrimidin-3(2H)-yl]cyclohexyl} quinoline-2-carboxamide] it was 0.0158 nM; in that of `O=C(N[C@H]1CC[C@@H](n2c(=O)c3cc(F)cnc3n(-c3cccc(-c4ccccc4O)c3)c2=O)CC1)c1cn2cc(F)ccc2n1` [Example 26, 6-fluoro-N-{cis-4-[6-fluoro-1-(2′-hydroxybiphenyl-3-yl)-2,4-dioxo-1,4-dihydropyrido[2,3-d]pyrimidin-3(2H)-yl]cyclohexyl}imidazo[1,2-a]pyridine-2-carboxamide.], 0.0501 nM.
In the case of `O=C(N[C@H]1CC[C@@H](n2c(=O)c3cc(F)cnc3n(-c3cccc(-c4ccc(CN5CCC[C@H]5CO)cc4)c3)c2=O)CC1)c1cn2c(n1)CCCC2` [Example 226, N-{cis-4-[6-fluoro-1-(4′-{[(2S)-2-(hydroxymethyl)pyrrolidin-1-yl]methyl}biphenyl-3-yl)-2,4-dioxo-1,4-dihydropyrido[2,3-d]pyrimidin-3(2H)-yl]cyclohexyl}-5,6,7,8-tetrahydroimidazo[1,2-a]pyridine-2-carboxamide] it was 0.0501 nM.
The same measure for `O=C(N[C@H]1CC[C@@H](n2c(=O)c3cc(F)cnc3n(-c3cccc(-c4ccc(CN5CCNCC5)cc4Br)c3)c2=O)CC1)c1cn2cc(F)ccc2n1` [Example 229, N-{cis-4-[1-[2′-Bromo-4′-(piperazin-1-ylmethyl)biphenyl-3-yl]-6-fluoro-2,4-dioxo-1,4-dihydropyrido[2,3-d]pyrimidin-3(2H)-yl]cyclohexyl}-6-fluoroimidazo[1,2-a]pyridine-2-carboxamide]: 0.00631 nM.
As to `O=C(CN1CCCCC1)N[C@H]1CC[C@@H](n2c(=O)c3cc(F)cnc3n(-c3cccc(-c4ccc(O)cc4CN4CCOCC4)c3)c2=O)CC1` [Example 333, N-{cis-4-[6-fluoro-1-[4′-hydroxy-2′-(morpholin-4-ylmethyl)biphenyl-3-yl]-2,4-dioxo-1,4-dihydropyrido[2,3-d]pyrimidin-3(2H)-yl]cyclohexyl}-2-piperidin-1-ylacetamide], the IC50 was 2 nM.
In the case of `CCN(CC)CC(=O)N[C@H]1CC[C@@H](n2c(=O)c3cc(F)cnc3n(-c3cccc(-c4ccc(CN5CCN(C(C)C)CC5)cc4)c3)c2=O)CC1` [Example 241, N^2,N^2-diethyl-N-{cis-4-[6-fluoro-1-{4′-[(4-isopropylpiperazin-1-yl)methyl]biphenyl-3-yl}-2,4-dioxo-1,4-dihydro-pyrido[2,3-d]pyrimidin-3(2H)-yl]cyclohexyl} glycinamide] it was 0.0794 nM; in that of `O=C(N[C@H]1CC[C@@H](n2c(=O)c3cc(F)cnc3n(-c3cccc(-c4ccc(CN5CCOCC5)cc4)c3)c2=O)CC1)c1cn2c(n1)CCCC2` [Example 109, N-{cis-4-[6-fluoro-1-[4′-(morpholin-4-ylmethyl)biphenyl-3-yl]-2,4-dioxo-1,4-dihydropyrido[2,3-d]pyrimidin-3(2H)-yl]cyclohexyl}-5,6,7,8-tetrahydroimidazo[1,2-a]pyridine-2-carboxamide], 0.0158 nM; in that of `O=C(N[C@H]1CC[C@@H](n2c(=O)c3cc(F)cnc3n(-c3cccc(-c4ccc(CN5CCCOCC5)cc4)c3)c2=O)CC1)c1ccc(OCCN2CCCC2)cc1` [Example 307, N-{cis-4-[6-fluoro-1-[4′-(1,4-oxazepan-4-ylmethyl)biphenyl-3-yl]-2,4-dioxo-1,4-dihydropyrido[2,3-d]pyrimidin-3(2H)-yl]cyclohexyl}-4-(2-pyrrolidin-1-ylethoxy)benzamide], 2.51 nM.
The same measure for `O=C(N[C@H]1CC[C@@H](n2c(=O)c3cc(F)cnc3n(-c3cccc(-c4ccc(CN5CCOCC5)cc4)c3)c2=O)CC1)c1cn2cc(F)ccc2n1` [Example 28, 6-fluoro-N-{cis-4-[6-fluoro-1-[4′-(morpholin-4-ylmethyl)biphenyl-3-yl]-2,4-dioxo-1,4-dihydropyrido[2,3-d]pyrimidin-3(2H)-yl]cyclohexyl}imidazo[1,2-a]pyridine-2-carboxamide.]: 0.0126 nM; for `CC(=O)n1cc(CN[C@H]2CC[C@@H](n3c(=O)c4cc(F)cnc4n(-c4cccc(-c5ccc(CN6CCCOCC6)cc5)c4)c3=O)CC2)c2ccccc21` [Example 266, 3-(cis-4-{[(1-acetyl-1H-indol-3-yl)methyl]amino}cyclohexyl)-6-fluoro-1-[4′-(1,4-oxazepan-4-ylmethyl)biphenyl-3-yl] pyrido[2,3-d]pyrimidine-2,4(1H,3H)-dione]: 1 nM.
With `CC(C)N1CCN(Cc2ccc(-c3cccc(-n4c(=O)n([C@H]5CC[C@@H](NC(=O)c6ccsc6)CC5)c(=O)c5cc(F)cnc54)c3)cc2)CC1` [Example 245, N-{cis-4-[6-fluoro-1-{4′-[(4-isopropylpiperazin-1-yl)methyl]biphenyl-3-yl}-2,4-dioxo-1,4-di-hydropyrido[2,3-d]pyrimidin-3(2H)-yl]cyclohexyl}thiophene-3-carboxamide], the IC50 is 0.02 nM.
In the case of `O=c1c2cc(F)cnc2n(-c2cccc(-c3ccccc3)c2)c(=O)n1[C@H]1CC[C@@H](NCc2cn3cc(F)ccc3n2)CC1` [Example 74, 1-biphenyl-3-yl-6-fluoro-3-(cis-4-{[(6-fluoroimidazo[1,2-a]pyridin-2-yl)methyl]amino}cyclohexyl)pyrido[2,3-d]pyrimidine-2,4(1H,3H)-dione] it was 0.794 nM; in that of `CN(C)C(=O)CN1CCN(Cc2ccc(-c3cccc(-n4c(=O)n([C@H]5CC[C@@H](NC(=O)c6cn7c(n6)CCCC7)CC5)c(=O)c5cc(F)cnc54)c3)cc2)CC1` [Example 137, N-{cis-4-[1-[4′-({4-[2-(dimethylamino)-2-oxoethyl]piperazin-1-yl}methyl)biphenyl-3-yl]-6-fluoro-2,4-dioxo-1,4-dihydropyrido[2,3-d]pyrimidin-3(2H)-yl]cyclohexyl}-5,6,7,8-tetrahydroimidazo[1,2-a]pyridine-2-carboxamide], 0.0126 nM.
In the case of `NCc1ccc(-c2cccc(-n3c(=O)n([C@H]4CC[C@@H](NC(=O)c5cn6cc(F)ccc6n5)CC4)c(=O)c4cc(F)cnc43)c2)cc1` [Example 32, N-{cis-4-[1-[4′-(aminomethyl)biphenyl-3-yl]-6-fluoro-2,4-dioxo-1,4-dihydropyrido[2,3-d]pyrimidin-3(2H)-yl]cyclohexyl}-6-fluoroimidazo[1,2-a]pyridine-2-carboxamide Hydrochloride] it was 0.158 nM.
In the case of `O=C(N[C@H]1CC[C@@H](n2c(=O)c3cc(F)cnc3n(-c3cccc(-c4ccccn4)c3)c2=O)CC1)c1cn2cc(F)ccc2n1` [Example 55, 6-fluoro-N-{cis-4-[6-fluoro-2,4-dioxo-1-(3-pyridin-2-ylphenyl)-1,4-dihydropyrido[2,3-d]pyrimidin-3(2H)-yl]cyclohexyl}imidazo[1,2-a]pyridine-2-carboxamide], the IC50 was 0.1 nM.
With `COc1ccc(O)c(CN[C@H]2CC[C@@H](n3c(=O)c4cc(F)cnc4n(-c4cccc(-c5ccc(CN6CCCOCC6)cc5)c4)c3=O)CC2)c1` [Example 267, 6-fluoro-3-{cis-4-[(2-hydroxy-5-methoxybenzyl)amino]cyclohexyl}-1-[4′-(1,4-oxazepan-4-ylmethyl)biphenyl-3-yl]pyrido[2,3-d] pyrimidine-2,4(1H,3H)-dione], the IC50 is 1.58 nM.
Turning to `Cc1cccc(C(=O)N[C@H]2CC[C@@H](n3c(=O)c4cc(F)cnc4n(-c4cccc(-c5ccc(CN6CCC(N7CCCCC7)CC6)cc5)c4)c3=O)CC2)n1` [Example 299, N-{cis-4-[1-[4′-(1,4′-bipiperidin-1′-ylmethyl)biphenyl-3-yl]-6-fluoro-2,4-dioxo-1,4-dihydropyrido[2,3-d]pyrimidin-3(2H)-yl]cyclohexyl}-6-methylpyridine-2-carboxamide], the IC50 is 0.0158 nM.
